Source: patent US12428406B2 (PMV Pharmaceuticals, Inc., priority 2019, dated 2025)

What follows are compounds tested against T1, p53 Y220C (Homo sapiens, UniProt P04637, Y220C) (assay: In vitro DNA binding activity assay (HTRF / TR-FRET): stabilization of p53 Y220C and increase of its DNA binding activity). Settings: recombinant His-tagged p53 Y220C DNA binding domain (aa 94-312), biotin-labeled consensus DNA, incubated at 27° C. or 29° C. for 60 min.
T1 construct: The recombinant protein was a truncation mutant containing only amino acids 94-312 of p53; made in house; host or cells: E. coli
Type: biochemical
How it was run: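 Test compounds, diluted 3-fold in DMSO from 4.5 mM stocks, were incubated with bacterially expressed His-tagged p53 Y220C at room temperature for 15 min, and after a further step for 20 min. DNA binding was detected by time-resolved FRET between APC and europium labels. SC150 marks the concentration increasing binding by 50%.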

T1 sequence (P04637 94-312, change not shown): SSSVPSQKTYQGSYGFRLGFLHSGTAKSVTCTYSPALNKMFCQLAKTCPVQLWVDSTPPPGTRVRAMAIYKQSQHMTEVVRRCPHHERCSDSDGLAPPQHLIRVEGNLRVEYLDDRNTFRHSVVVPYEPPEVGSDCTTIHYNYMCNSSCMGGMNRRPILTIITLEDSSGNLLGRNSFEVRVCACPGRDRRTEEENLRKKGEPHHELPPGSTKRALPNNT

SC150 (concentration of the compound required to increase the DNA binding activity by 50%)	SMILES
+ (+ = 0 μM ≤ SC150 < 0.05 μM)	CCC(=O)Oc1cc(S(C)(=O)=O)ccc1NCC#Cc1cc2c(NC3CCOCC3)cccc2n1CC(F)(F)F [Compound 1014A, 5-methanesulfonyl-2-[(3-{4-[(oxan-4-yl)amino]-1-(2,2,2-trifluoroethyl)-1H-indol-2-yl}prop-2-yn-1-yl)amino]phenyl propanoate]
+ (+ = 0 μM ≤ SC150 < 0.05 μM)	COc1cc(S(C)(=O)=O)ccc1NCC#Cc1cc2c(N[C@@H]3CCO[C@@H](C)C3)cccc2n1CC(F)(F)F [Compound 1016A, 2-{3-[(4-methanesulfonyl-2-methoxyphenyl)amino]prop-1-yn-1-yl}-N-[(2S,4R)-2-methyloxan-4-yl]-1-(2,2,2-trifluoroethyl)-1H-indol-4-amine]
+ (+ = 0 μM ≤ SC150 < 0.05 μM)	COc1cc(S(C)(=O)=O)ccc1NCC#Cc1cc2c(N[C@H]3CCO[C@@H](C)C3)cccc2n1CC(F)(F)F [Compound 1017A, 2-{3-[(4-methanesulfonyl-2-methoxyphenyl)amino]prop-1-yn-1-yl}-N-[(2S,4S)-2-methyloxan-4-yl]-1-(2,2,2-trifluoroethyl)-1H-indol-4-amine]
+ (+ = 0 μM ≤ SC150 < 0.05 μM)	COc1cc(S(N)(=O)=O)ccc1NCC#Cc1cc2c(N[C@@H]3CCO[C@@H](C)C3)cccc2n1CC(F)(F)F [Compound 1018A, 3-methoxy-4-{[3-(4-{[(2S,4R)-2-methyloxan-4-yl]amino}-1-(2,2,2-trifluoroethyl)-1H-indol-2-yl)prop-2-yn-1-yl]amino}benzene-1-sulfonamide]
+ (+ = 0 μM ≤ SC150 < 0.05 μM)	COc1cc(S(N)(=O)=O)ccc1NCC#Cc1cc2c(N[C@H]3CCO[C@@H](C)C3)cccc2n1CC(F)(F)F [Compound 1019A, 3-methoxy-4-{[3-(4-{[(2S,4S)-2-methyloxan-4-yl]amino}-1-(2,2,2-trifluoroethyl)-1H-indol-2-yl)prop-2-yn-1-yl]amino}benzene-1-sulfonamide]
+ (+ = 0 μM ≤ SC150 < 0.05 μM)	COc1cc(C(N)=O)ccc1NCC#Cc1cc2c(N[C@@H]3CCO[C@@H](C)C3)cccc2n1CC(F)(F)F [Compound 1020A, 3-methoxy-4-{[3-(4-{[(2S,4R)-2-methyloxan-4-yl]amino}-1-(2,2,2-trifluoroethyl)-1H-indol-2-yl)prop-2-yn-1-yl]amino}benzamide]
+ (+ = 0 μM ≤ SC150 < 0.05 μM)	COc1cc(C(N)=O)ccc1NCC#Cc1cc2c(N[C@H]3CCO[C@@H](C)C3)cccc2n1CC(F)(F)F [Compound 1021A, 3-methoxy-4-{[3-(4-{[(2S,4S)-2-methyloxan-4-yl]amino}-1-(2,2,2-trifluoroethyl)-1H-indol-2-yl)prop-2-yn-1-yl]amino}benzamide]
++ (++ = 0.05 μM ≤ SC150 < 0.1 μM)	COc1cc(S(C)(=O)=O)ccc1NCC#Cc1cc2c(N[C@H]3CCOC[C@@H]3OC)cccc2n1CC(F)(F)F [Compound 1023A, 2-(3-((2-methoxy-4-(methylsulfonyl)phenyl)amino)prop-1-yn-1-yl)-N-((3R,4S)-3-methoxytetrahydro-2H-pyran-4-yl)-1-(2,2,2-trifluoroethyl)-1H-indol-4-amine]
+ (+ = 0 μM ≤ SC150 < 0.05 μM)	COc1cc(S(C)(=O)=O)ccc1NCC#Cc1cc2c(N[C@H]3CCOC[C@H]3OC)cccc2n1CC(F)(F)F [Compound 1024A, 2-(3-((2-methoxy-4-(methylsulfonyl)phenyl)amino)prop-1-yn-1-yl)-N-((3S,4S)-3-methoxytetrahydro-2H-pyran-4-yl)-1-(2,2,2-trifluoroethyl)-1H-indol-4-amine]
+ (+ = 0 μM ≤ SC150 < 0.05 μM)	COc1cc(S(C)(=O)=O)ccc1NCC#Cc1cc2c(N[C@H]3CCOC[C@H]3F)cccc2n1CC(F)(F)F [Compound 1025A, N-[(3S,4S)-3-fluorooxan-4-yl]-2-{3-[(4-methanesulfonyl-2-methoxyphenyl)amino]prop-1-yn-1-yl}-1-(2,2,2-trifluoroethyl)-1H-indol-4-amine]
+ (+ = 0 μM ≤ SC150 < 0.05 μM)	COc1cc(S(C)(=O)=O)ccc1NCC#Cc1cc2c(N[C@@H]3CCOC[C@@H]3F)cccc2n1CC(F)(F)F [Compound 1026A, N-[(3R,4R)-3-fluorooxan-4-yl]-2-{3-[(4-methanesulfonyl-2-methoxyphenyl)amino]prop-1-yn-1-yl}-1-(2,2,2-trifluoroethyl)-1H-indol-4-amine]
++ (++ = 0.05 μM ≤ SC150 < 0.1 μM)	COc1cc(S(C)(=O)=O)ccc1NCC#Cc1cc2c(N[C@H]3C[C@@H](C)O[C@@H](C)C3)cccc2n1CC(F)(F)F [Compound 1027A, 2-{3-[(4-methanesulfonyl-2-methoxyphenyl)amino]prop-1-yn-1-yl}-N-[(2R,4R,6S)-2,6-dimethyloxan-4-yl]-1-(2,2,2-trifluoroethyl)-1H-indol-4-amine]
+++ (+++ = 0.1 μM ≤ SC150 < 0.2 μM)	COc1cc(S(C)(=O)=O)ccc1NCC#Cc1cc2c(N[C@@H]3C[C@@H](C)O[C@@H](C)C3)cccc2n1CC(F)(F)F [Compound 1028A, 2-{3-[(4-methanesulfonyl-2-methoxyphenyl)amino]prop-1-yn-1-yl}-N-[(2R,4S,6S)-2,6-dimethyloxan-4-yl]-1-(2,2,2-trifluoroethyl)-1H-indol-4-amine]
+++ (+++ = 0.1 μM ≤ SC150 < 0.2 μM)	COc1cc(C(N)=O)ccc1NCC#Cc1cc2c(N[C@H]3C[C@@H](C)O[C@@H](C)C3)cccc2n1CC(F)(F)F [Compound 1029A, 3-methoxy-4-{[3-(4-{[(2R,4R,6S)-2,6-dimethyloxan-4-yl]amino}-1-(2,2,2-trifluoroethyl)-1H-indol-2-yl)prop-2-yn-1-yl]amino}benzamide]
++ (++ = 0.05 μM ≤ SC150 < 0.1 μM)	COc1cc(C(N)=O)ccc1NCC#Cc1cc2c(N[C@@H]3C[C@@H](C)O[C@@H](C)C3)cccc2n1CC(F)(F)F [Compound 1030A, 3-methoxy-4-{[3-(4-{[(2R,4S,6S)-2,6-dimethyloxan-4-yl]amino}-1-(2,2,2-trifluoroethyl)-1H-indol-2-yl)prop-2-yn-1-yl]amino}benzamide]
+ (+ = 0 μM ≤ SC150 < 0.05 μM)	COc1cc(S(N)(=O)=O)ccc1NCC#Cc1cc2c(N[C@@H]3C[C@@H](C)O[C@@H](C)C3)cccc2n1CC(F)(F)F [Compound 1031A, 3-methoxy-4-{[3-(4-{[(2R,4S,6S)-2,6-dimethyloxan-4-yl]amino}-1-(2,2,2-trifluoroethyl)-1H-indol-2-yl)prop-2-yn-1-yl]amino}benzene-1-sulfonamide]
++ (++ = 0.05 μM ≤ SC150 < 0.1 μM)	COc1cc(S(N)(=O)=O)ccc1NCC#Cc1cc2c(N[C@H]3C[C@@H](C)O[C@@H](C)C3)cccc2n1CC(F)(F)F [Compound 1032A, 3-methoxy-4-{[3-(4-{[(2R,4R,6S)-2,6-dimethyloxan-4-yl]amino}-1-(2,2,2-trifluoroethyl)-1H-indol-2-yl)prop-2-yn-1-yl]amino}benzene-1-sulfonamide]
+ (+ = 0 μM ≤ SC150 < 0.05 μM)	COc1cc(C(C)(C)C#N)ncc1NCC#Cc1cc2c(NC3CCS(=O)(=O)CC3)cccc2n1CC(F)(F)F [Compound 1034A, 2-{5-[(3-{4-[(1,1-dioxo-1λ^6-thian-4-yl)amino]-1-(2,2,2-trifluoroethyl)-1H-indol-2-yl}prop-2-yn-1-yl)amino]-4-methoxypyridin-2-yl}-2-methylpropanenitrile]
+ (+ = 0 μM ≤ SC150 < 0.05 μM)	CS(=O)(=O)c1ccc(NCC#Cc2cc3c(NC4CCS(=O)(=O)CC4)cccc3n2CC(F)(F)F)c(OC(F)(F)F)c1 [Compound 1035A, 4-{[2-(3-{[4-methanesulfonyl-2-(trifluoromethoxy)phenyl]amino}prop-1-yn-1-yl)-1-(2,2,2-trifluoroethyl)-1H-indol-4-yl]amino}-1λ^6-thiane-1,1-dione]
+ (+ = 0 μM ≤ SC150 < 0.05 μM)	COc1cc(S(=O)(=O)N2CCOCC2)ccc1NCC#Cc1cc2c(NC3CCS(=O)(=O)CC3)cccc2n1CC(F)(F)F [Compound 1036A, 4-{[2-(3-{[2-methoxy-4-(morpholine-4-sulfonyl)phenyl]amino}prop-1-yn-1-yl)-1-(2,2,2-trifluoroethyl)-1H-indol-4-yl]amino}-1λ^6-thiane-1,1-dione]
++ (++ = 0.05 μM ≤ SC150 < 0.1 μM)	CN(C)CCOc1cc(S(C)(=O)=O)ccc1NCC#Cc1cc2c(NC3CCS(=O)(=O)CC3)cccc2n1CC(F)(F)F [Compound 1037A, 4-({2-[3-({2-[2-(dimethylamino)ethoxy]-4-methanesulfonylphenyl}amino)prop-1-yn-1-yl]-1-(2,2,2-trifluoroethyl)-1H-indol-4-yl}amino)-1λ^6-thiane-1,1-dione]
+ (+ = 0 μM ≤ SC150 < 0.05 μM)	COc1cc(S(=O)(=O)N(C)CCO)ccc1NCC#Cc1cc2c(NC3CCS(=O)(=O)CC3)cccc2n1CC(F)(F)F [Compound 1038A, 4-[(3-{4-[(1,1-dioxo-1λ^6-thian-4-yl)amino]-1-(2,2,2-trifluoroethyl)-1H-indol-2-yl}prop-2-yn-1-yl)amino]-N-(2-hydroxyethyl)-3-methoxy-N-methylbenzene-1-sulfonamide]
